Assay results as given in PubChem BioAssay (NCI).
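A five-concentration, 48-hour dose response in 96-well plates underlies each endpoint, interpolated linearly between surrounding concentrations. TGI marks complete inhibition of growth.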

How the values were obtained:
Experiment in all cases: DTP human tumour cell line panel, 48 h
MDA-MB-231 breast = system: MDA-MB-231 breast
SN12C renal = system: SN12C renal
MDA-MB-435 = system: MDA-MB-435
T-47D breast = system: T-47D breast
SK-MEL-2 melanoma = system: SK-MEL-2 melanoma
NCI/ADR-RES ovarian = system: NCI/ADR-RES ovarian
786-0 renal = system: 786-0 renal
COLO 205 colon = system: COLO 205 colon
BT-549 breast = system: BT-549 breast
PC-3 prostate = system: PC-3 prostate
TK-10 renal = system: TK-10 renal
HL-60(TB) leukemia = system: HL-60(TB) leukemia

SMILES	TGI (MDA-MB-231 breast) [µM]	TGI (SN12C renal) [µM]	TGI (MDA-MB-435) [µM]	TGI (T-47D breast) [µM]	TGI (SK-MEL-2 melanoma) [µM]	TGI (NCI/ADR-RES ovarian) [µM]	TGI (786-0 renal) [µM]	TGI (COLO 205 colon) [µM]	TGI (BT-549 breast) [µM]	TGI (PC-3 prostate) [µM]	TGI (TK-10 renal) [µM]	TGI (HL-60(TB) leukemia) [µM]
O=[N+]([O-])C(/C(Cl)=C(/Cl)N1CCOCC1)=C1\Nc2ccccc2O1	> 100	> 100	> 100	> 100	> 100	> 100	> 100	> 100	> 100	> 100		
CCOC(=O)N1CCC2(CC1)C[C@](Sc1ccccc1)(C(C)=O)[C@H](C)O2	> 100		> 100	> 100	> 100	> 100	> 100	> 100		> 100	> 100	> 100
COC(=O)C12CCCN1CCC2	> 100	> 100	> 100	> 100	> 100	> 100	> 100	> 100	> 100	> 100	> 100	
COC1CCC(O)C(CO)O1 (configuration not stated)		> 100			> 100						> 100	87
CCOC(=O)c1ccc(N2C(=O)/C(=C/c3ccc(N(CCC#N)CCC#N)cc3)N=C2c2cc([N+](=O)[O-])ccc2Cl)cc1		> 100			> 100			> 100			> 100	
OC1CCN2Cc3ccccc3N=C12 (configuration not stated)	> 100	> 100	> 100		> 100	> 100	> 100	> 100	> 100	> 100	> 100	> 100
CCN(CC)c1c(-c2c(OC(C)C)c(=O)c2=O)c(=O)n2ccsc2c1OC(C)=O	> 100	> 100	> 100		> 100	> 100	> 100	> 100	> 100	> 100	> 100	> 100
COC(=O)C12C(=O)CC3CCC1C32C(=O)OC (configuration not stated)	> 100	> 100	> 100		> 100	> 100	> 100	> 100	> 100	> 100	> 100	
C[C@]12C(=O)OC[C@H](c3ccccc3)N1C(=O)N(Cc1ccccc1)[C@@H]2CO	> 100	> 100	> 100		> 100	> 100	> 100	> 100	> 100	> 100	> 100	> 100
CCN(CC)P(=O)(c1ccc2c(c1)OCCOCCOCCOCCO2)N(CC)CC	> 100	> 100	> 100	> 100			> 100	> 100	> 100	> 100	> 100	> 100
C/C(=N/NC(=S)N1CCCCCC1)c1cccc(/C(C)=N\NC(=S)N2CCCCCC2)n1	3.41	4.57	3.36	5.95	3.81	3.86	2.63	3.23		5.2	3.29	5.26
CCO/C(O)=c1/s/c(=C2/SC(=S)N(c3ccc(C)cc3)C2=O)n(-c2ccccc2)c1=N	59	> 100	> 100		> 100	> 100	77.4	> 100	> 100	> 100	> 100	> 100
Cc1c2ccccc2c(=O)n2c(-c3ccccn3)cccc12		> 100			> 100		> 100	> 100			> 100	> 100
CC1(N2CCOCC2)CC2C(=[N+]1[O-])CCC/C2=N/O (configuration not stated)	> 100	> 100	> 100	> 100	> 100	> 100	> 100		> 100	> 100	> 100	
CC1OC1C(=O)P(=O)(O)O (configuration not stated)	> 100	> 100	> 100	> 100	> 100	> 100		> 100	> 100	> 100	> 100	> 100
Cc1cc(C)c2c(-c3ccccc3)cc(=O)[nH]c2c1	> 100	> 100	> 100	> 100	> 100	> 100	> 100	> 100		> 100	> 100	> 100
C[C@]12CC[C@H]3[C@@H](CC=C4C[C@@H](N5CCCC5)CC[C@@]43C)[C@@H]1C/C(=C\c1ccc([N+](=O)[O-])cc1)[C@@H]2O	30.2	27.5	31	46.9		43.4	17.9	32.6	26.7	88	35.8	
CN(C)N1C(=C(C#N)C#N)C(c2ccccc2)CC1C#N (configuration not stated)	> 100	> 100	> 100	> 100	> 100	> 100	> 100	> 100		> 100	> 100	> 100
CC(=O)Oc1ccc2c(c1)O/C(=C\c1ccc(N(C)C)cc1)C2=O	> 100	> 100	> 100	> 100		> 100	> 100	> 100	> 100	> 100	> 100	> 100
CCOc1cc2c(cc1OC)c[n+](C)c1c3cc(OC)c(OC)cc3ccc21		> 100			> 80.6		> 56.6	> 100			> 100	32.2
Cc1cnoc1/N=C1\C=C(Nc2oncc2C)C(=O)c2ccccc21		> 100			> 100		> 100	> 100			> 100	> 100
OC1C2CN3CCN(C2)CC1(c1ccccc1)C3 (configuration not stated)	> 100	> 100	> 100		> 100	> 100	> 100	> 100	> 100	> 100	> 100	> 100
